Key:
[1] = set-up: method as in ref 20 (Culhaoglu et al.); conditions: ref 20 (Culhaoglu et al.); cited from earlier work
[2] = set-up: method as in ref 20 (Culhaoglu et al.); conditions: ref 20 (Culhaoglu et al.); cited from earlier work; remark: listed apart in the source
[3] = set-up: method as in PMID 28383511; conditions: cited from earlier work
[4] = FRAP assay (ferric reducing antioxidant power); conditions: all tested concentrations (10–200 µM), 30 min incubation
Experimental: The ferric reducing antioxidant power of the compounds was tested with a modified method of Benzie and Strain [37]. The FRAP reagent consisted of 10 mL acetate buffer (300 mM, pH 3.6), 1 mL TPTZ solution (10 mM) in 40 mM HCl, and 1 mL FeCl3 (10 mM). The mixture was incubated at 37 °C for 15 min and used on the same day. The reaction mixture was prepared by 20 µL of the investigated compound (10, 20, 50, 100, and 200 µM) and 180 µL activated FRAP reagent in a 96-well plate. Following a 30 min incubation period, the absorbance was measured at 593 nm by a Multiskan GO microplate spectrophotometer (Thermo Fisher Scientific, Waltham, MA, USA). Iron (II) sulfate heptahydrate was used as the standard in different concentrations (0.5, 1, 5, 10, 50, 100, and 500 µM). The FRAP values are expressed as µM ferrous equivalents. The experiments were run in duplicate and repeated three times.

[5] = ORAC assay (oxygen radical absorbance capacity); conditions: for ORAC value compared to quercetin: 10 µM; for ORAC value (AUCnet): 2 and 10 µM
Experimental: The oxygen radical absorbance capacity was evaluated using the ORAC assay. The test was carried out in a black 96-well plate with a black bottom. The stock solutions of 50 nM fluorescein and 180 mM AAPH in phosphate buffer (75 mM, pH 7.00) were prepared freshly and used on the same day. To each well, 20 µL of compound in ACN (2 and 10 µM) was added to 160 µL fluorescein. In the case of blank samples, 20 µL of ACN was added. The plate was incubated for 15 min at 37 °C, and then the 20 µL AAPH solution was rapidly added to each well to initiate the reaction. The fluorescence was monitored at 485 nm excitation and 520 nm emission wavelength for 2 h every 2 min by the FLUOstar OPTIMA (BMG Labtech, Ortenberg, Germany) plate reader. The assay was performed in duplicate and repeated three times. The area under the curve (AUC) was calculated as follows:AUC = 0.5 + (A1/A0) + (A2/A0) + (A3/A0) + ⋯ + (An/A0),(1) where A0 is the fluorescence reading at 0 min and An is the fluorescence reading at n min. The reported ORAC values were calculated by subtracting the blank AUC from the sample AUC and expressed as AUCnet. AUCnet = AUCsample − AUCblank(2)

H9c2 cells = assay: MTT cell viability assay; type: cell-based; conditions: 20 µM, 12 h
Experimental: (§1) The MTT assay was used to determine the effect of the investigated compounds on the cell viability. H9c2 cells (ATCC, CRL-1446, LGC Standards GmbH, Wesel, Germany) were seeded into 96-well plates at a density of 6000 cells/well in 200 µL media (DMEM, high glucose, pyruvate from Thermo Fischer Scientific with 10% FBS and supplemented with penicillin and streptomycin) and cultured overnight. The flavonols were added to the cells in 20 µM concentration. After 12 h, 20 μL of MTT solution ([…] in PBS) was added to each well, and the plates were incubated for 4 h. Afterwards, the media was carefully removed and 100 μL DMSO was added to each well to dissolve the formazan crystals. Absorbance was measured at 540 and 630 nm using a Synergy HT plate reader (BioTek, Winooski, VT, USA). The tests were carried out in triplicate and repeated two times.

[6] = ABTS radical scavenging assay; conditions: from inhibition percentage at 120 min, concentration range 10–200 µM
Experimental: To measure the ABTS radical scavenging activity, the work of Sugahara et al. and Re et al. was followed closely, applying few alterations. A mixture containing 7 mM ABTS and 2.45 mM K2S2O8 in water was kept in the dark for 16 h to form ABTS^•+. The working solution was prepared by adding 150 µL of ABTS^•+ solution to 2.9 mL MeOH. Aliquots of 180 µL of this working solution were pipetted into wells containing 20 µL of test samples in DMSO with different concentrations (10, 20, 50, 100, and 200 µM). Absorbance was measured at 737 nm after 10 s mixing using a Multiskan GO microplate spectrophotometer (Thermo Fisher Scientific, Waltham, MA, USA) at 0, 1, 2, 3, 4, 5, 10, 15, 30, 45, 60, 75, 90, 105, and 120 min. Quercetin was used as the standard. The IC50 values were calculated based on the inhibition percentage measured at 120 min. The experiments were carried out in duplicate and repeated three times.

[7] = DPPH radical scavenging assay; conditions: from inhibition percentage at 90 min, concentration range 10–200 µM
Experimental: The method used for the DPPH radical scavenging assay was adopted from Clarke et al., with modifications. A total of 180 µL freshly made 0.2 mM DPPH solution in methanol was added to 20 µL of the investigated compounds in various concentrations (10, 20, 50, 100, and 200 µM) in DMSO. After a gentle, 10-s mixing period, the plate was kept in the dark for 90 min. and the absorbance was read at 515 nm using a Multiskan GO microplate spectrophotometer (Thermo Fisher Scientific, Waltham, MA, USA) at 0, 1, 2, 3, 4, 5, 10, 15, 30, 45, 60, 75, and 90 min. Blanks (20 µL DMSO with 180 µL MeOH) and quercetin standards in the same concentration as the tested compounds were measured simultaneously. The IC50 values were calculated based on the inhibition percentage measured at 90 min. The measurements were performed in duplicate and repeated three times.

[8] = Chemical Fenton reaction (biomimetic model of phase I biotransformation); type: in vitro ADME; conditions: ESI-MS and LC-MS detection
Experimental: The Fenton reaction of the compounds was carried out based on a method reported previously by Csepanyi et al.. The reaction mixture consisted of 400 μL 2.5 mM of the investigated compound in ACN, 50 μL 20 mM FeCl3, 50 μL 20 mM EDTA-Na2, and 500 μL 10 mM ascorbic acid in ACN/H2O (50:50) and 2 μL 30% hydrogen peroxide. The reaction mixture was stirred at room temperature at 700 rpm. Samples were drawn at 2, 24, 72, and 144 h and were diluted with ACN/H2O (50:50) and analyzed immediately by an API 2000 Triple Quadrupole mass spectrometer (Applied Biosystems, Waltham, MA, USA) equipped with a syringe pump with the following parameters: 20 μL/min flow rate, 10 PSI curtain gas, 20 V declustering potential, 4000 V ion spray voltage, 400 V focusing potential, and 200 °C ion source temperature. The positive ion electrospray mass spectra were recorded in the range of m/z 100–500 using Analyst 1.5.1. Software (AB SCIEX, Concord, ON, Canada). In additional experiments, the reaction mixture was separated and analyzed with an LTQ XL linear ion trap mass spectrometer coupled with the Accela LC system (Thermo Fisher Scientific, Waltham, MA, USA). The HPLC separation was performed using a Kinetex XB-C18 2.6 μm column, 0.1% formic acid in water, and ACN with 0.1% formic acid with gradient elution, and the flow rate was set to 300 μL/min. […]

MTT cell viability assay = type: cell-based; conditions: rat, H9c2 cells, read-out: cell viability compared to the control
Experimental: as §1

[9] = set-up: method as in ref 29 (Deng et al.); conditions: ref 29 (Deng et al.); cited from earlier work

Compound	FRAP value [4]	melting point [°C]	ORAC value (AUCnet) [5]	cytotoxic activity (cell viability) (H9c2 cells)	IC50 DPPH scavenging [7]	other results
CN(C)c1ccc(-c2oc3ccccc3c(=O)c2O)cc1 [4′-N,N-dimethylamino-3-OH-flavon]						scavenging of DPPH radicals [1]: significant scavenging; scavenging of ABTS radicals [2]: significant scavenging
CN(C)c1ccc(-c2cc(=O)c3ccccc3o2)cc1 [4′-N,N-dimethylamino-flavon]						radical scavenger activity [3]: good radical scavenger
COc1ccc(-c2oc3ccc(-c4cccc(N(C)C)c4)cc3c(=O)c2O)cc1OC [6a, 2-(3,4-Dimethoxyphenyl)-6-[3-(dimethylamino)phenyl]-3-hydroxy-4H-chromen-4-one]	highest FRAP values	187.7 to 188.8	highest ORAC value	did not exhibit cytotoxic activity		ORAC value compared to quercetin [5]: comparable to quercetin
COCc1ccc(-c2ccc3oc(-c4ccc(OC)c(OC)c4)c(O)c(=O)c3c2)cc1 [6b, 2-(3,4-Dimethoxyphenyl)-3-hydroxy-6-[4-(methoxymethyl)phenyl]-4H-chromen-4-one]	significantly lower ferrous equivalents	192.8 to 194.3	highest ORAC value	significantly decreased the viability of cells		
COc1ccc(-c2oc3cc(-c4cccc(N(C)C)c4)ccc3c(=O)c2O)cc1OC [6c, 2-(3,4-Dimethoxyphenyl)-7-[3-(dimethylamino)phenyl]-3-hydroxy-4H-chromen-4-one]	highest FRAP values		fourth highest capacity	did not exhibit cytotoxic activity	lowest IC50 value	IC50 ABTS radical cation scavenging [6]: lowest IC50 value; oxidative transformation products (potential metabolites) [8]: two potential metabolites were detected
COCc1ccc(-c2ccc3c(=O)c(O)c(-c4ccc(OC)c(OC)c4)oc3c2)cc1 [6d, 2-(3,4-Dimethoxyphenyl)-3-hydroxy-7-[4-(methoxymethyl)phenyl]-4H-chromen-4-one]	significantly lower ferrous equivalents	212.1 to 214.2		significantly decreased the viability of cells		viability at 12 h, 20 µM (MTT cell viability assay): 46%
COc1cc(-c2oc3cc(-c4cccc(N(C)C)c4)ccc3c(=O)c2O)cc(OC)c1OC [6e, 7-[3-(Dimethylamino)phenyl]-3-hydroxy-2-(3,4,5-trimethoxyphenyl)-4H-chromen-4-one]	highest FRAP values	179.5 to 181.8	highest ORAC value	did not exhibit cytotoxic activity	lower antioxidant potency	ORAC value compared to quercetin [5]: comparable to quercetin
COCc1ccc(-c2ccc3c(=O)c(O)c(-c4cc(OC)c(OC)c(OC)c4)oc3c2)cc1 [6f, 3-Hydroxy-7-[4-(methoxymethyl)phenyl]-2-(3,4,5-trimethoxyphenyl)-4H-chromen-4-one]	significantly lower ferrous equivalents	208.1 to 209.2		significantly decreased the viability of cells	lower antioxidant potency	
O=c1c(O)c(-c2ccc(O)c(O)c2)oc2cc(O)cc(O)c12 [quercetin]						FRAP value relative to the methylated form [9]: 650 times

— publication PMC6320925, “Synthesis, In Vitro Biological Evaluation, and Oxidative Transformation of New Flavonol Derivatives: The Possible Role of the Phenyl-N,N-Dimethylamino Group” (Molecules, 2018)
